“And” between values parts separate entries of the source, which are not always exact repeats. Equal values may be shown once. Read-outs that look alike come from different tables or passages of the source.
How the values were obtained:
LCE [1] = assay: LCE assay: dependence of AZT-DMDOPE cleavage on EGTA and divalent metal cations; assay type: biochemical, human; conditions: for Spezifische Aktivität / Inhibition / DMDOP: Effektor 2 mM, 2 h 37 °C, n = 3; for Spezifische Aktivität / DMDOP: Membranfraktionen stimulierter humaner PBL 0.068 mg/Ansatz; for Inhibition: relative to EGTA, Membranfraktionen stimulierter humaner PBL; for Inhibierung der LCE-Aktivität (in words): divalent metal cations, 2 mM in Example 9
Protocol: Die Abhängigkeit der enzymatischen Spaitung von AZT-DMDOPE durch das LCE von zweiwertigen Metallkationen wurde mit Membranfraktionen stimulierter humaner PBL als Enzymquelle untersucht.
Die zweiwertigen Metallkationen wurden in einer Konzentration von 2 mM im LCE-Assay eingesetzt. Die Proteinkonzentration wurde mit 0.068 mg/Ansatz festgelegt.
Parallel wurde ein Ansatz mit EGTA mitgeführt. EGTA ist ein spezifischer Komplexbildner für Ca^2+ das essentiell für die Aktivität der Phospholipase C ist. Nach einer Inkubationszeit von 2 h bei 37 °C wurde der Umsatz der Muttersubstanz gemessen und die spezifische Aktivität des LCE bestimmt (folgende Tabelle).

LCE [2] = assay: Influence of enzyme inhibitors or activators on LCE activity, kidney membrane fraction; assay type: biochemical, Balb/c
Protocol: Das Pipettierschema ist in der folgenden Tabelle angegeben. Tabelle
Zur Untersuchung der enzymatischen Spaltung in Abhängigkeit von der Substratkonzentration wurde eine Substratstammlösung von 0.98 nmol [^14C]-AZT-DMDOPE und 0.7 nmol AZT-DMDOPE/80 µl Aqua bidest. im LCE-Assay angesetzt. Die verschiedenen Substratkonzentrationen im LCE-Assay wurden durch kontinuierliche Verdopplung bzw. Halbierung des Volumens an Substratlösung eingestellt. Die Ansätze wurden in Glasröhrchen (5 ml) vorgelegt und durch Zugabe der Substratlösung gestartet. Die Inkubation wurde bei 37 °C im Wasserbad unter leichtem Schütteln durchgeführt.
Die Reaktionsansätze des LCE-Assays wurden nach entsprechender Inkubationszeit dem Wasserbad entnommen, und die Reaktion durch Zugabe von 750 µl 2-Propanol gestoppt. Nach gründlicher Durchmischung wurden die Ansätze anschließend mit 700 µl auf Raumtemperatur erwärmtem n-Heptan versetzt. Die Ansätze wurden erneut für 30 sec gut gemischt und zur Beschleunigung der Phasentrennung in der Minifuge T bei 3200 rpm für 15 min bei Raumtemperatur zentrifugiert. Anschließend wurden 500 µl der oberen Phase (n-Heptan) entnommen und in neue Glasröhrchen (5 ml) mit 10 mg Kieselgel 60 H und 200 µl n-Heptan überführt. Die Ansätze wurden für 30 sec gut durchmischt und zur Sedimentation des Kieselgels für 10 min unter oben genannten Bedingungen zentrifugiert. Vom Überstand wurden anschließend 500 µl entnommen und mit 3 ml Szintillationsflüssigkeit versetzt. Die Messung der Radioaktivität erfolgte für 4 min im Flüssigkeits-Szintillations-Analysator. Zur Bestimmung des Absolutwertes an Radioaktivität wurden 200 µl der Substratlösung mit 3 ml Szintillationsflüssigkeit versetzt und unter gleichen Bedingungen im Flüssigkeits-Szintillations-Analysator gemessen.

stimulierten humanen PBL [3] = assay: Intracellular concentrations of AZT and AZT nucleotides (radioimmunoassay) in stimulated human PBL; conditions: for Konzentrationen an AZT und AZT-Nukleotiden nach Abfall bei zunehmender Inkubationszeit: up to 24 h
Description: Zur Bestimmung der intrazellulären Konzentrationen an AZT und/oder AZT-Nukleotiden nach Inkubation mit AZT-DMDOPE bzw. AZT wurden humane PBL aus "Buffy coat" isoliert.
Hierfür wurde "Buffy-coat" von gesunden Spendern gemischt und durch Zentrifugation in einem isotonischen Medium mit einer Dichte von 1.077 g/ml fraktioniert. Da mononukleare Blutzellen (Monozyten und Lymphozyten) eine geringere Dichte als Erythrozyten und polymorphkernige Granulozyten haben, bilden sie einen Ring an der Grenze zwischen Trennmedium und Probe und können mit Hilfe einer Pipette abgenommen werden. Erythrozyten und polymorphkernige Granulozyten sedimentieren aufgrund ihrer höheren Dichte durch das Medium und lassen sich somit von PBL separieren. Zur Stimulation der Zellproliferation wurde Phytohämaglutinin A (Mukoprotein) (PHA-M), der mitogene Lektinextrakt aus der roten Feuerbohne (Phaseolus vulgaris), eingesetzt. Phytohämagglutinin ist eine Familie von 5 Isolektinen, die als Tetramere vorliegen. Die Untereinheiten bestehen aus einem lymphozytenreaktiven Typ-L und einem erythrozytenreaktiven Typ-E. Typ-L hat eine hohe Affinität zu Lymphozytenoberflächenrezeptoren und ist somit verantwortlich für die mitogenen Eigenschaften. Die Stimulation der Lymphozyten wurde in KPMI 1640 Komplettmedium III für 72 h bei 37 °C und 5 % CO2 durchgeführt. Nach Beendigung der Stimulation wurden zur Erhöhung der Zellzahl die Zellen für weitere 24 h in RPMI 1640 Komplettmedium IV kultiviert.
Zur Bestimmung der intrazellulären Konzentrationen an AZT und AZT-Nukleotiden wurden die Zellen in RPMI 1640 Komplettmedium II mit einer Dichte von 1 x 10^6 Zellen/ml in Gewebekulturflaschen (50 ml/25 cm^2) überführt, und in Anwesenheit von 0.03 bzw. 0.3 µg AZT/ml (Charge 15) und 1 bzw. 10 µg AZT-DMDOPE/ml für 1 - 24 h inkubiert.
Die Kulturen wurden anschließend für 1, 3, 6 und 24 h bei 37 °C und 5 % CO2 inkubiert. AZT und seine Nukleotide wurden anschließend mit 60 % Methanol extrahiert. Die extrahierten Nukleotide wurden mit alkalischer Phosphatase quantitativ zu AZT dephosphoryliert, da nur AZT, nicht jedoch die entsprechenden Nukleotide mit Hilfe eines Radioimmuno-Assays detektiert werden kann.
Die Konzentrationen an intrazellulärem AZT, die mit Hilfe des Radioimmuno-Assays bestimmt wurden, setzten sich dementsprechend aus der des AZT und den der AZT-Nukleotide zusammen. Eine separate Quantifizierung der Konzentrationen an AZT-MP, AZT-DP und AZT-TP wurde nicht durchgeführt.
Diese Experimente wurden an stimulierten humanen PBL durchgeführt.
Hierfür wurden Zellsuspensionen mit einer Dichte von 10^6 Zellen/ml mit 1 bzw. 10 µg AZT-DMDOPE/ml für 6 bzw. 24 h bei 37 °C und 5 % CO2 inkubiert.
Zur quantitativen Bestimmung von AZT wurde ein kommerzieller ^125J-AZT RIA Test-Kit verwendet. Puffer und Lösungen wurden gemäß den Angaben des Herstellers angesetzt und im Test-Kit eingesetzt. Die Reaktionsansätze wurden nach untenstehendem Schema (Tab. ) pipettiert, vorsichtig gemischt und für 2 h bei Raumtemperatur inkubiert. Anschließend wurden zur Präzipitation des Komplexes aus ^125J-AZT und des AZT-Antikörpers (aus Kaninchen) 500 µl des Ziege-Anti-Kaninchen-Antikörpers hinzugefügt. Die Ansätze wurden gemischt und erneut bei Raumtemperatur für 30 min inkubiert.

[4] = system: nichtstimulierten humanen PBL; assay: Intracellular concentrations of AZT and AZT nucleotides (radioimmunoassay) in non-stimulated human PBL; assay type: in vitro ADME
Description: AZT wurden humane PBL aus "Buffy coat" isoliert.

stimulierten humanen PBL [5] = assay: Intracellular decay kinetics of AZT and AZT nucleotides after removal of the incubation solution; assay type: in vitro ADME, human; conditions: 24 h preincubation with 0.3 µg AZT/ml, reached 6 h after removal
Protocol: Stimulierte humane PBL wurden für 24 h mit 0.3 µg AZT/ml bzw. 10 µg AZT-DMDOPE/ml inkubiert. Anschließend wurden 1 x 10^7 Zellen in Gewebekulturflaschen (50 ml/25 cm^2) mit RPMI 1640 Komplettmedium I überführt. Nach 1, 3, 6, 24 und 48 h wurde AZT und die AZT-Nukleotide aus der zellulären Matrix extrahiert. Nach einer Behandlung mit alkalischer Phosphatase wurde mit Hilfe des Radioimmuno-Assays die Konzentration an AZT bestimmt.

P3X63Ag8.653-Zellen = assay: Intracellular concentrations of AZT and AZT nucleotides (radioimmunoassay) in thymidine kinase deficient cells; assay type: in vitro ADME; conditions: after 48 h
Description: Die Bestimmung der intrazellulären Konzentrationen an AZT und AZT-Nukleotiden in Thymidikinasedefizienten Zellen sollte weitere Erkenntnisse über die intrazelluläre Spaltung der Testsubstanz AZT-DMDOPE liefern. Intrazelluläres AZT kann in diesen Zellen aufgrund eines Mangels an Thymidin-Kinase (TK) nicht in ATZ-MP und somit in das therapeutisch wirksame AZT-TP überführt werden. Die Bestimmung der intrazellulären Konzentrationen an AZT und AZT-Nukleotiden nach Inkubation mit AZT-DMDOPE könnte somit einen weiteren Hinweis auf die Spaltung der Teststubstanz geben.
Hierfür wurden in Gewebekulturschalen (60 x 15 mm) 1 x 10^7 Zellen in RPMI 1640 Komplettmedium I mit 0.03 bzw. 0.3 µg AZT/ml und 1 bzw. 10 µg AZT-DMDOPE/ml über 6, 24 und 48 h inkubiert. Nach Extraktion von AZT und der AZT-Nukleotide und einer Behandlung mit alkalischer Phosphatase wurde die Konzentration an AZT mit Hilfe des Radioimmuno-Assays bestimmt.

[6] = molecular target: virale reverse Transkriptase (RT) (Human immunodeficiency virus type 1 group M subtype B, UniProt P04585); conditions: intracellular AZT in non-phosphorylated form; cited from earlier work
LCE [7] = assay: Substrate cleavage by LCE; assay type: biochemical; conditions: cleavage to drug monophosphate and DMDOP
Description: Das Enzym wird vorzugsweise aus humanen peripheren Blutleukozyten, die zuvor durch PHA oder andere Stimulantien (z.B. Cytokine, etc.) aktiviert wurden, oder aus murinen Nierenzellen isoliert. Aus vorläufigen Untersuchungen ergibt sich ein Molekulargewicht von etwa 120.000 - 160.000, bestimmt nach der SDS-PAGE-Methode. Zellen, die dieses Enzym enthalten, können auf einfache Weise dadurch identifiziert werden, indem sie unter geeigneten Testbedingungen mit einer Lösung von AZT-DMDOPE oder FLT-DMDOPE versetzt werden und die Spaltprodukte AZT-monophosphat bzw. FLT-monophosphat oder DMDOP nachgewiesen werden, beispielsweise durch dünnschichtchromatographische Methoden oder im Fall von radioaktiv markierten Proben durch szintillatographische Verfahren (siehe Beispiele 4 - 7). Im Gegensatz zu den biochemisch verwandten Phospholipasen C oder -D wird das LCE nicht durch bekannte Inhibitoren von Phospholipase C oder -D gehemmt oder durch Aktivatoren von Phospholipase C oder -D aktiviert. Im Gegensatz zu Phospholipase C wird das Enzym durch die Substanz D 609 (Tricyclodecan-9-yl-xanthogenat; C11H15OS2 K) aktiviert, während D 609 Phospholipase C inhibiert.

stimulierten PBL = conditions: stimulierte PBL, Arner et al., 1992; cited from earlier work
[8] = LCE Membranfraktion Niere (Balb/c)

## ZnCl2
LCE [1]
  Spezifische Aktivität: 0 pmol/mg/min
  Inhibition: 100.0%
  Inhibierung der LCE-Aktivität (in words): totalen Hemmung
LCE [1]; listed as Zn^2+
  Inhibierung der LCE-Aktivität (in words): Inhibierung

## O=[N+]([O-])c1cccc2cn[nH]c12 [7-Nitroindazol]
LCE [2]; [8]
  Einfluß auf LCE-Aktivität: keine

## Cc1cn([C@H]2C[C@H](N=[N+]=[N-])[C@@H](CO)O2)c(=O)[nH]c1=O [AZT, 3'-Desoxy-3'-azidothymidin, reference compound]
Stimulierten humanen PBL [3]; incubation with 0.03 µg AZT/ml, reached after 6 h
  maximale Konzentrationen an AZT und AZT-Nukleotiden: 2.90 ng/10^6 Zellen
Stimulierten humanen PBL [3]; incubation with 0.03 µg AZT/ml
  Konzentrationen an AZT und AZT-Nukleotiden nach Abfall bei zunehmender Inkubationszeit: 2.32 ng/10^6 Zellen
Stimulierten humanen PBL [3]; incubation with 0.3 µg AZT/ml, reached after 3 h
  maximale Konzentrationen an AZT und AZT-Nukleotiden: 30.97 ng/10^6 Zellen
Stimulierten humanen PBL [3]; incubation with 0.3 µg AZT/ml
  Konzentrationen an AZT und AZT-Nukleotiden nach Abfall bei zunehmender Inkubationszeit: 19.88 ng/10^6 Zellen
[4]; 0.03 µg AZT/ml
  intrazelluläre Konzentrationen an AZT und AZT-Nukleotiden: 0.10 ng/10^6 Zellen
[4]; 0.3 µg AZT/ml
  intrazelluläre Konzentrationen an AZT und AZT-Nukleotiden: 0.47 ng/10^6 Zellen
Stimulierten humanen PBL [5]
  konstanter Wert der intrazellulären Konzentrationen an AZT und AZT-Nukleotiden: 0.40 ng/10^6 Zellen
P3X63Ag8.653-Zellen; 0.03 µg AZT/ml
  maximale intrazelluläre Konzentrationen an AZT und AZT-Nukleotiden: 0.03 ng/10^6 Zellen
P3X63Ag8.653-Zellen; 0.3 µg AZT/ml
  maximale intrazelluläre Konzentrationen an AZT und AZT-Nukleotiden: 0.31 ng/10^6 Zellen
[6]
  inhibitorische Wirkung auf die virale reverse Transkriptase (RT): keine inhibitorische Wirkung

## CCCCCCCCCCCCSCC(COP(=O)(O)OC[C@H]1O[C@@H](n2cc(F)c(=O)[nH]c2=O)[C@H](O)[C@@H]1O)OCCCCCCCCCC (stereo partly shown) [5-FU-DMDOPE, (5-Fluoruridin)-5'-phosphorsäure-(3-dodecylmercapto-2-decyloxy)-propylester]
LCE [7]
  Spaltung durch LCE: gespalten

## Nc1nc2c(ncn2C2OC(COP(=O)(O)OP(O)(=S)OP(=O)(O)O)C(O)C2O)c(=O)[nH]1 (stereo not drawn) [GTP-β-S]
LCE [2]; [8]
  Einfluß auf LCE-Aktivität: keine

## COC[C@H]1OC(=O)c2coc3c2[C@@]1(C)C1=C(C3=O)[C@@H]2CCC(=O)[C@@]2(C)C[C@H]1OC(C)=O [Wortmannin]
LCE [2]
  Einfluß auf LCE-Aktivität: keine

## Cc1cn([C@H]2C[C@H](N=[N+]=[N-])[C@@H](COP(=O)(O)O)O2)c(=O)[nH]c1=O [AZT-MP, 3'-Desoxy-3'-azidothymidin-monophosphat]
Stimulierten PBL
  im Vergleich zu AZT-DP und AZT-TP um Faktor höhere Konzentration an AZT-MP: 40

## CC(=O)Oc1ccccc1C(=O)O [Acetylsalicylsäur e]
LCE [2]; [8]
  Einfluß auf LCE-Aktivität: keine

## Nc1ncnc2c1ncn2C1CCCO1 (stereo not shown) [SQ 22536]
LCE [2]; [8]
  Einfluß auf LCE-Aktivität: keine

## CCCCCCCCCCCCSCC(COP(=O)(O)OC[C@H]1O[C@@H](n2cc(C)c(=O)[nH]c2=O)C[C@@H]1F)OCCCCCCCCCC (stereo partly shown) [FLT-DMDOPE, (3'-Desoxy-3'-fluorthymidin)-5'-phosphorsäure-(3-dodecylmercapto-2-decyloxy)-propylester]
LCE [7]
  Spaltung durch LCE: gespalten

## [Cl][Mn][Cl] [MnCl2]
LCE [1]
  DMDOP: 4.75 ± 0.63 pmol
  Spezifische Aktivität: 0.58 ± 0.08 pmol/mg/min
  Inhibition: 94%
  Inhibierung der LCE-Aktivität (in words): totalen Hemmung
LCE [1]; listed as Mn^2+
  Inhibierung der LCE-Aktivität (in words): Inhibierung

## MgCl2
LCE [1]
  DMDOP: 84.36 ± 17.02 pmol
  Spezifische Aktivität: 10.34 ± 2.08 pmol/mg/min
  Inhibition: 0%
  Inhibierung der LCE-Aktivität (in words): keine Inhibierung

## CaCl2
LCE [1]
  DMDOP: 50.50 ± 2.13 pmol
  Spezifische Aktivität: 6.19 ± 0.26 pmol/mg/min
  Inhibition: 41.0 ± 0.25% and 41.0 ± 2.5%
  Inhibierung der LCE-Aktivität (in words): Inhibierung

## O=C(O)CN(CCOCCOCCN(CC(=O)O)CC(=O)O)CC(=O)O [EGTA]
LCE [1]
  DMDOP: 84.96 ± 11.18 pmol
  Spezifische Aktivität: 10.41 ± 1.37 pmol/mg/min
  Inhibition: ≡ 0%

## Neomycin
LCE [2]; [8]
  Einfluß auf LCE-Aktivität: keine

## O=C(NCCCCCCNC(=O)ON=C1CCCCC1)ON=C1CCCCC1 [RHC-80267]
LCE [2]; [8]
  Einfluß auf LCE-Aktivität: keine

From EP0791056B1, “LIPID-CLEAVAGE ENZYME COMPLEX” (priority 1994, dated 1996)
